Laboratory results reported in ChEMBL document CHEMBL1201862, “PubChem BioAssay data set” (2004).
Active and inactive are the calls of the source.

Legend:
[1] = target: NACHT, LRR and PYD domains-containing protein 3 (Homo sapiens, UniProt Q96P20); assay: NALP3 inhibitors in yeast, dose response, luminescent (AID 488799); format: functional
HEK293 [2] = assay: PMA/Ionomycin induced NF-kB luciferase assay in 293- NF-kB-Luc stable cells. [Related pubchem assays: 1299, 1270, 1295, 1375, 1287, 1281, 1293, 1291, 1289, 1280, 465, 1364, 1282, 1372, 1365, 1370, 1367, 1366, 1269, 1373, 1292, 1290, 1302, 1371, 1283, 1271, 1294, 1374, 1368, 1369 ]; format: functional, cell-based; conditions: Homo sapiens
HEK293 [3] = assay: Cytotoxicity assay in HEK293 cells. [Related pubchem assays (depositor defined):AID1266, AID1269, AID1270, AID1271, AID1280, AID1281, AID1282, AID1283, AID1287, AID1289, AID1290, AID1291, AID1292, AID1293, AID1294, AID1295, AID1299, AID1302, AID1364, AID1365, AID1366, AID1367, AID1369, AID1370, AID1371, AID1372, AID1373, AID1374, AID1375, AID1384 …; format: functional, cell-based; conditions: Homo sapiens
[4] = target: Luciferin 4-monooxygenase (Photinus pyralis, UniProt P08659); assay: In vitro luciferase assay using purified luciferase. [Related pubchem assays: 1299, 1270, 1295, 1375, 1287, 1281, 1293, 1291, 1289, 1280, 465, 1364, 1282, 1372, 1365, 1370, 1367, 1366, 1266, 1373, 1292, 1290, 1302, 1371, 1283, 1271, 1294, 1374, 1368, 1369 ]
Chain of Luciferin 4-monooxygenase (P08659 whole entry): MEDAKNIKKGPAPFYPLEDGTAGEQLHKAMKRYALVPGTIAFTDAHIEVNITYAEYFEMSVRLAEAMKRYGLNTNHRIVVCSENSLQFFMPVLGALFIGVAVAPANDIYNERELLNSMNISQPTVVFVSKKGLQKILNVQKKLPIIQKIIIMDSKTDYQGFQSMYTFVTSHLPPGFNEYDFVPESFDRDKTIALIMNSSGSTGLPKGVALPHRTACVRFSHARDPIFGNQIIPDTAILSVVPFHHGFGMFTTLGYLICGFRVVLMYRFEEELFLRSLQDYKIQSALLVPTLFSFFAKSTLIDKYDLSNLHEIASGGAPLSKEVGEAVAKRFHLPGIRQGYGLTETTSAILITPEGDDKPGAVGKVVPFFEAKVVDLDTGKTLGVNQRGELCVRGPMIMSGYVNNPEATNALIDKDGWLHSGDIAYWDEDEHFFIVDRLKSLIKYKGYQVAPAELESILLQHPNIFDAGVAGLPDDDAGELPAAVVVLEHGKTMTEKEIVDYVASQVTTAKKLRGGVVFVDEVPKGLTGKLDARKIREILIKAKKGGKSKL

Protein RecA = target: T1, Protein RecA (Mycobacterium tuberculosis, UniProt P9WHJ3); assay: Fluorescence Cell-Free Homogeneous Dose Retest to Identify Inhibitors of RecA-Intein Splicing Activity. [Related pubchem assays (depositor defined):AID2097, AID2223, AID489010, AID492950]; format: functional
T1 sequence (P9WHJ3 whole entry): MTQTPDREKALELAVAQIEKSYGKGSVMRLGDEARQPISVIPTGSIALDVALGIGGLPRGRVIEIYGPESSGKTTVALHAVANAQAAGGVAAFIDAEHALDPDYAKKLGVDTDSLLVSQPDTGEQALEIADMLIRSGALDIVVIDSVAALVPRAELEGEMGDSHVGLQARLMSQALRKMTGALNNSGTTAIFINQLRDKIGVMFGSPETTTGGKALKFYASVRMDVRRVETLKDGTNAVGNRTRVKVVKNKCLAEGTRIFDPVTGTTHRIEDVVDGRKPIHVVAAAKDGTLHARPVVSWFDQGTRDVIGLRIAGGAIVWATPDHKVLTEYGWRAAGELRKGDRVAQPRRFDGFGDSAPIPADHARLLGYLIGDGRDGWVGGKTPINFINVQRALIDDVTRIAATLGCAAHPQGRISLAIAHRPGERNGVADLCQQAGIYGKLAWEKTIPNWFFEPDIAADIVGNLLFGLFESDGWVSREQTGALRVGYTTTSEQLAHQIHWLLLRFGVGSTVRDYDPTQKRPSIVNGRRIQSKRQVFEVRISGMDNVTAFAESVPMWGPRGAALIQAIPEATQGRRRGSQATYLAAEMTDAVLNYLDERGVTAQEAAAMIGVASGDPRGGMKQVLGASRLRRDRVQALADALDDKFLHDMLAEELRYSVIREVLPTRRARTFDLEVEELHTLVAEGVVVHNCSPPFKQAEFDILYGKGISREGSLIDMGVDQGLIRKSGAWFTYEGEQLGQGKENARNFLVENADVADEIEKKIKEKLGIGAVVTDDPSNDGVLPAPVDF

HEK293 [5] = assay: EBV LMP1 TES2 canonical NF-kB signalling blockers – cell-based, HEK293, luciferase, cherry-pick, dose response (AID 588343); format: functional; conditions: Homo sapiens
HEK293 [6] = assay: TNF Induced NF-kB Luciferase in 293-NF-kB-Luc Stable Cells. [Related pubchem assays: 1266, 1299, 1269, 1373, 1292, 1290, 1302, 1371, 1283, 1270, 1295, 1271, 1375, 1294, 1374, 1281, 1293, 1291, 1289, 1280, 465, 1368, 1364, 1282, 1372, 1365, 1369, 1370, 1367, 1366 ]; format: functional, cell-based; conditions: Homo sapiens
[7] = target: T2, Replicative DNA helicase DnaB (Mycobacterium tuberculosis, UniProt P9WMR3); assay: DnaB intein splicing inhibitors, dose response, biochemical, cell-free fluorescence (AID 449749); format: functional
T2 sequence (P9WMR3 whole entry): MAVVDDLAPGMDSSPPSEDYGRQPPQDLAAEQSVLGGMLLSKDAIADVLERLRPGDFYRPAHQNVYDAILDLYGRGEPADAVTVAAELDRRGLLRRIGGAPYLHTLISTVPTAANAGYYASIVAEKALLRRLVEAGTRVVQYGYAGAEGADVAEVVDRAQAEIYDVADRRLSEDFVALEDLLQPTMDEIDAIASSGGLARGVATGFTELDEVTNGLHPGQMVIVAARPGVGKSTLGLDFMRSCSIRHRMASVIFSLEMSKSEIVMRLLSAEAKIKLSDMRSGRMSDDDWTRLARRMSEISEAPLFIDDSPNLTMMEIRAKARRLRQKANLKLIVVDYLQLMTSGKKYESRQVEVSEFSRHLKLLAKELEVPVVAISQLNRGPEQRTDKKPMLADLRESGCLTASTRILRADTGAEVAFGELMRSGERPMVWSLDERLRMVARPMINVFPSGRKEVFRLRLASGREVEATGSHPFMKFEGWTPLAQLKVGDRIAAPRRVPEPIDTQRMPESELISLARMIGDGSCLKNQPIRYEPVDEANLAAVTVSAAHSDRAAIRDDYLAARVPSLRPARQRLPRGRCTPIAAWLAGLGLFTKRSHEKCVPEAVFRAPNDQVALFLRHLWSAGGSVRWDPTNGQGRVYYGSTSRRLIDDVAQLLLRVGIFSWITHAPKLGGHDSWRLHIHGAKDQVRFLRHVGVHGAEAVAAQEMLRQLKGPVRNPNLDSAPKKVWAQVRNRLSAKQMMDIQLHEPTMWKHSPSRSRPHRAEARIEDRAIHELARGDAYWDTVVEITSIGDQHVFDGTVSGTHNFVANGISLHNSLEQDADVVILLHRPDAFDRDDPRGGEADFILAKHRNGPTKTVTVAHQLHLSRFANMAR

MDA-MB-435 = assay: cells; format: functional, cell-based; conditions: Homo sapiens
cells = format: functional, cell-based; conditions: PPC-1
Trypsin = Trypsin (Sus scrofa, UniProt P00761); assay: trypsin protease activity blockade – biochemical, quenched peptide fluorescence, cherry-pick, selectivity assay for Rce1 protease inhibitor project, dose response (AID 488789)
Chain of Trypsin (P00761 whole entry): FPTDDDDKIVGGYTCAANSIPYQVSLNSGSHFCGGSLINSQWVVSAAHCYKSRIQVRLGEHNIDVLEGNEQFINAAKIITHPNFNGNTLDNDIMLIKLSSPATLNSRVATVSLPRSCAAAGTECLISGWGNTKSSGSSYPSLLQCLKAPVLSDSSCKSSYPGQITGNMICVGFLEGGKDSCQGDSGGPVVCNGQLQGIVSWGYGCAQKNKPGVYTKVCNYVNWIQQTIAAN

Bcl-2-like protein 10 = Bcl-2-like protein 10 (Homo sapiens, UniProt Q9HD36); assay: Bcl-B/TR3 peptide binding disruption – biochemical, fluorescence polarization, FITC-TR3 peptide, selectivity assay for Bfl-1 inhibitor project, primary screen (AID 748);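 also: fluorescence polarization from a fluorescein-labelled TR3 peptide binding purified Bcl-B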
Chain of Bcl-2-like protein 10 (Q9HD36 whole entry): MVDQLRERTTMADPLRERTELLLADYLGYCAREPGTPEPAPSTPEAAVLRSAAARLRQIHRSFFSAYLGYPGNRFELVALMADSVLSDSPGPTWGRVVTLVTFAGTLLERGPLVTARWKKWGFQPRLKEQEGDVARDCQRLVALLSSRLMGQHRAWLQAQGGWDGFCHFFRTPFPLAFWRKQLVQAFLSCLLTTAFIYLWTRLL

Chain of NACHT, LRR and PYD domains-containing protein 3 (Q96P20 whole entry, the tested form may be a part): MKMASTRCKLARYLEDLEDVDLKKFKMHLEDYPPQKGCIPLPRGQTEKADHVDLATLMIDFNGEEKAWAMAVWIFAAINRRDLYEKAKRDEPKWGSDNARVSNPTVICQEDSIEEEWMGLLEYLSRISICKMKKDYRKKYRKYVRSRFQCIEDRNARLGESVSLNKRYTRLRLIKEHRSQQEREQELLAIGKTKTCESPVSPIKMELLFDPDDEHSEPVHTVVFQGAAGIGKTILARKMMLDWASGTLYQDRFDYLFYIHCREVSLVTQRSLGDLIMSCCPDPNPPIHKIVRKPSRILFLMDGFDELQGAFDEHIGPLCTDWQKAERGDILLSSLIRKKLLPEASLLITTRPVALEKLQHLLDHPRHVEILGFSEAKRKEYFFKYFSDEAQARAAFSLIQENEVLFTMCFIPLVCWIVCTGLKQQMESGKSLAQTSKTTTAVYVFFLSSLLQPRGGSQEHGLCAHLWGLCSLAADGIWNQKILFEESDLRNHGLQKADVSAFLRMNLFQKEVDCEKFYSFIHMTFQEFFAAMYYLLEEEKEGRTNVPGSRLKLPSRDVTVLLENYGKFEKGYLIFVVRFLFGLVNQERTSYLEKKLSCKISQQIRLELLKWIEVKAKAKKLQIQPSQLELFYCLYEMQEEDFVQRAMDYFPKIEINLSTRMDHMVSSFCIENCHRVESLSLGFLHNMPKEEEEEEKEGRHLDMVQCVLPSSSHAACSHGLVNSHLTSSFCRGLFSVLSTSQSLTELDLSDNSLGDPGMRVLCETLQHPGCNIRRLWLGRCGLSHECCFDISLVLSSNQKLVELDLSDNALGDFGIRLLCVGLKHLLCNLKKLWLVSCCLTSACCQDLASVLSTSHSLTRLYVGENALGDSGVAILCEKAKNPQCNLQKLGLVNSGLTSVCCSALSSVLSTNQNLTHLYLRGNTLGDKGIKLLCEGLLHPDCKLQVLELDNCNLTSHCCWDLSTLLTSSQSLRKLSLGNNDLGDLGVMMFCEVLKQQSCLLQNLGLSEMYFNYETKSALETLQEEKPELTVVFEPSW

## O=C(Nc1scc(-c2ccccc2)c1C(=O)O)c1ccc(F)cc1
[1]
  IC50: 10.3 µM (active)

## Cc1n[nH]c2c1C(c1c(C)nn(-c3ccccc3)c1Cl)C(C#N)=C(N)O2 (configuration not stated)
HEK293 [2]
  EC50: 1 µM (active)
HEK293 [3]
  EC50: > 8 µM (inactive)
[4]
  EC50: > 8 µM (not active)
Protein RecA
  EC50: 13.5 µM (active)
HEK293 [5]
  AC50: 7.01 µM (active)
HEK293 [6]
  EC50: 1.68 µM (active)
[7]
  AC50: 14 µM (active)

## CCSc1cc(N2CCCC2)nc(-c2ccc(Cl)cc2)n1
MDA-MB-435
  IC50: > 10 µM (inactive)
cells
  IC50: > 10 µM (inactive)

## CSC[C@H](NC(=O)COc1cc2c(c3oc(=O)cc(C)c13)CCC(C)(C)O2)C(=O)O
Trypsin
  AC50: 12 µM (active)

## c1ccc(-c2nn3c(Cn4nnc5ccccc54)nnc3s2)nc1
Bcl-2-like protein 10
  IC50: 34.6 µM (active)
